This note sets out measurements from US9018208B2, “Heterocycles as potassium channel modulators” (Icagen Inc., priority 2007, dated 2015).

The test system of one test is SH-SY5Y M-currents (KCNQ2, KCNQ3 and KCNQ5). Briefly: SH-SY5Y native cell line FLIPR assay (voltage-sensitive dye DiBAC). The settings on record: SH-SY5Y native cell line, FLIPR assay (Table 3); read-out: SH-SY5Y EC50. Type of test: cell-based, mouse neuroblastoma, rat glioma hybrid cell line. The gist of the method: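 Response is peak DiBAC fluorescence change, normalised to the maximum from a positive control agent, sampled every 30 s over 25 min. Before compound addition, SH-SY5Y cells differentiated with PGE1 plus isomethylbutylxanthine were dye-loaded for 1 h in EBSS with […] DiBAC.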
On to `Cc1ccc(-c2c(NC(=O)CC(C)(C)C)nc3ccc(F)cn23)nc1` [Compound 359, N-(6-fluoro-3-(5-methylpyridin-2-yl)imidazo[1,2-a]pyridin-2-yl)-3,3-dimethylbutanamide], for which the EC50 was 0.5 to 3 µM.

On to `CC(C)(C)CC(=O)Nc1nc2ccc(F)cn2c1-c1cccc(C(F)(F)F)n1` [Compound 361, N-(6-fluoro-3-(6-(trifluoromethyl)pyridin-2-yl)imidazo[1,2-a]pyridin-2-yl)-3,3-dimethylbutanamide], for which the EC50 was less than 0.5 µM.

As for `CC(C)(C)CC(=O)Nc1nc2ccc(F)cn2c1-c1ncccn1` [Compound 362, N-(6-fluoro-3-(pyrimidin-2-yl)imidazo[1,2-a]pyridin-2-yl)-3,3-dimethylbutanamide], the EC50 lay in the range of 3 to 10 µM.

As for `CC(C)(C)CC(=O)Nc1nc2ccc(F)cn2c1-c1cc(Cl)ccn1` [Compound 364, N-(3-(4-chloropyridin-2-yl)-6-fluoroimidazo[1,2-a]pyridin-2-yl)-3,3-dimethylbutanamide], the EC50 was in the range of 0.5 to 3 µM.

As to `Cc1ccnc(-c2c(NC(=O)CC(C)(C)C)nc3ccc(F)cn23)c1` [Compound 365, N-(6-fluoro-3-(4-methylpyridin-2-yl)imidazo[1,2-a]pyridin-2-yl)-3,3-dimethylbutanamide], the EC50 is 0.5 to 3 µM.

For the compound `COc1cccc(-c2c(NC(=O)CC(C)(C)C)nc3ccc(F)cn23)n1` [Compound 367, N-(6-fluoro-3-(6-methoxypyridin-2-yl)imidazo[1,2-a]pyridin-2-yl)-3,3-dimethylbutanamide], the EC50 was 0.5 to 3 µM.

As for `CC(C)C(C)C(=O)Nc1nc2ccc(F)cn2c1-c1ccc(F)cn1` (stereo not shown) [Compound 368, N-(6-fluoro-3-(5-fluoropyridin-2-yl)imidazo[1,2-a]pyridin-2-yl)-2,3-dimethylbutanamide], the EC50 was in the range of 3 to 10 µM.

Regarding `CC(CC(=O)Nc1nc2ccc(F)cn2c1-c1ccc(F)cn1)C(F)(F)F` (stereo not shown) [Compound 369, 4,4,4-trifluoro-N-(6-fluoro-3-(5-fluoropyridin-2-yl)imidazo[1,2-a]pyridin-2-yl)-3-methylbutanamide], the EC50 was in the range of 3 to 10 µM.

In the case of `CC(C)n1cc(-c2c(NC(=O)CC(C)(C)C)nc3ccc(F)cn23)cn1` [Compound 370, N-(6-fluoro-3-(1-isopropyl-1H-pyrazol-4-yl)imidazo[1,2-a]pyridin-2-yl)-3,3-dimethylbutanamide], the EC50 is 3 to 10 µM.

Consider `CC(C)(C)CCC(=O)Nc1nc2ccc(F)cn2c1-c1nc2ccccc2s1` [Compound 372, N-(3-(benzo[d]thiazol-2-yl)-6-fluoroimidazo[1,2-a]pyridin-2-yl)-4,4-dimethylpentanamide], for which the EC50 fell in the range of 0.5 to 3 µM.

As for `CC(C)C(C)C(=O)Nc1nc2ccc(F)cn2c1-c1nc2ccccc2s1` (stereo not shown) [Compound 373, N-(3-(benzo[d]thiazol-2-yl)-6-fluoroimidazo[1,2-a]pyridin-2-yl)-2,3-dimethylbutanamide], the EC50 fell in the range of 3 to 10 µM.

`CC(CC(=O)Nc1nc2ccc(F)cn2c1-c1nc2ccccc2s1)C(F)(F)F` (stereo not shown) [Compound 374, N-(3-(benzo[d]thiazol-2-yl)-6-fluoroimidazo[1,2-a]pyridin-2-yl)-4,4,4-trifluoro-3-methylbutanamide]: the EC50 was 3 to 10 µM.

Take `CC1(CC(=O)Nc2nc3ccc(F)cn3c2-c2nc3ccccc3s2)CCCC1` [Compound 375, N-(3-(benzo[d]thiazol-2-yl)-6-fluoroimidazo[1,2-a]pyridin-2-yl)-2-(1-methylcyclopentyl)acetamide]: the EC50 is less than 0.5 µM.

Regarding `CC(C)(C)CC(=O)Nc1nc2ccc(C(F)(F)F)cn2c1-c1nc2ccccc2s1` [Compound 376, N-(3-(benzo[d]thiazol-2-yl)-6-(trifluoromethyl)imidazo[1,2-a]pyridin-2-yl)-3,3-dimethylbutanamide], the EC50 was less than 0.5 µM.

As for `CC(C)(C)CC(=O)Nc1nc2ccc(F)cn2c1-c1nccc(C(F)(F)F)n1` [Compound 377, N-(6-fluoro-3-(4-(trifluoromethyl)pyrimidin-2-yl)imidazo[1,2-a]pyridin-2-yl)-3,3-dimethylbutanamide], the EC50 fell in the range of 3 to 10 µM.

Turning to `O=C(Nc1nc2ccc(F)cn2c1-c1nc2ccccc2s1)C1CCCC1` [Compound 378, N-(3-(benzo[d]thiazol-2-yl)-6-fluoroimidazo[1,2-a]pyridin-2-yl)cyclopentanecarboxamide], the EC50 was 3 to 10 µM.

Take `O=C(Cc1ccc(F)cc1)Nc1nc2ccc(F)cn2c1-c1nc2ccccc2s1` [Compound 379, N-(3-(benzo[d]thiazol-2-yl)-6-fluoroimidazo[1,2-a]pyridin-2-yl)-2-(4-fluorophenyl)acetamide]: the EC50 lay in the range of 0.5 to 3 µM.

For `O=C(CC1CCCC1)Nc1nc2ccc(F)cn2c1-c1nc2ccccc2s1` [Compound 380, N-(3-(benzo[d]thiazol-2-yl)-6-fluoroimidazo[1,2-a]pyridin-2-yl)-2-cyclopentylacetamide], the EC50 is 0.5 to 3 µM.

For the compound `O=C(CC(F)(F)F)Nc1nc2ccc(F)cn2c1-c1nc2ccccc2s1` [Compound 381, N-(3-(benzo[d]thiazol-2-yl)-6-fluoroimidazo[1,2-a]pyridin-2-yl)-3,3,3-trifluoropropanamide], the EC50 fell in the range of 0.5 to 3 µM.

In the case of `Cc1ccc2nc(NC(=O)CC(C)(C)C)c(-c3nc4ccccc4s3)n2n1` [Compound 382, N-(3-(benzo[d]thiazol-2-yl)-6-methylimidazo[1,2-b]pyridazin-2-yl)-3,3-dimethylbutanamide], the EC50 was 3 to 10 µM.

For `CC(CC(=O)Nc1nc2ccc(F)cn2c1-c1nccs1)C(F)(F)F` (stereo not shown) [Compound 383, 4,4,4-trifluoro-N-(6-fluoro-3-(thiazol-2-yl)imidazo[1,2-a]pyridin-2-yl)-3-methylbutanamide], the EC50 is 3 to 10 µM.

As for `O=C(Cc1ccc(F)cc1)Nc1nc2ccc(F)cn2c1-c1nccs1` [Compound 384, N-(6-fluoro-3-(thiazol-2-yl)imidazo[1,2-a]pyridin-2-yl)-2-(4-fluorophenyl)acetamide], the EC50 was 0.5 to 3 µM.

Consider `Cc1ccc2nc(NC(=O)Cc3ccc(F)cc3)c(-c3nc4ccccc4s3)n2n1` [Compound 385, N-(3-(benzo[d]thiazol-2-yl)-6-methylimidazo[1,2-b]pyridazin-2-yl)-2-(4-fluorophenyl)acetamide], for which the EC50 lay in the range of 3 to 10 µM.

As to `Cc1ccc2nc(NC(=O)CC(C)C(F)(F)F)c(-c3nc4ccccc4s3)n2n1` (stereo not shown) [Compound 386, N-(3-(benzo[d]thiazol-2-yl)-6-methylimidazo[1,2-b]pyridazin-2-yl)-4,4,4-trifluoro-3-methylbutanamide], the EC50 is 3 to 10 µM.

For `Cc1ccc2nc(NC(=O)CC(C)(C)C)c(-c3nccs3)n2n1` [Compound 387, 3,3-dimethyl-N-(6-methyl-3-(thiazol-2-yl)imidazo[1,2-b]pyridazin-2-yl)butanamide], the EC50 fell in the range of 3 to 10 µM.

For the compound `Cc1ccc2nc(NC(=O)CC(C)C(F)(F)F)c(-c3nccs3)n2n1` (stereo not shown) [Compound 388, 4,4,4-trifluoro-3-methyl-N-(6-methyl-3-(thiazol-2-yl)imidazo[1,2-b]pyridazin-2-yl)butan amide], the EC50 is 3 to 10 µM.

For the compound `Cc1ccc2nc(NC(=O)C3CCC(F)(F)CC3)c(-c3nccs3)n2n1` [Compound 389, 4,4-difluoro-N-(6-methyl-3-(thiazol-2-yl)imidazo[1,2-b]pyridazin-2-yl)cyclohexanecarboxamide], the EC50 was 3 to 10 µM.

Consider `Cc1ccc2nc(NC(=O)Cc3ccc(F)cc3)c(-c3nccs3)n2n1` [Compound 390, 2-(4-fluorophenyl)-N-(6-methyl-3-(thiazol-2-yl)imidazo[1,2-b]pyridazin-2-yl)acetamide], for which the EC50 was 3 to 10 µM.

For the compound `O=C(Nc1nc2ccc(F)cn2c1-c1nccs1)C1CCC(F)(F)CC1` [Compound 391, 4,4-difluoro-N-(6-fluoro-3-(thiazol-2-yl)imidazo[1,2-a]pyridin-2-yl)cyclohexanecarboxamide], the EC50 is less than 0.5 µM.

Take `Cc1cccc2nc(NC(=O)CC(C)(C)C)c(-c3nc4ccccc4s3)n12` [Compound 392, N-(3-(benzo[d]thiazol-2-yl)-5-methylimidazo[1,2-a]pyridin-2-yl)-3,3-dimethylbutanamide]: the EC50 fell in the range of 3 to 10 µM.

For `Cc1cccc2nc(NC(=O)Cc3ccc(F)cc3)c(-c3nc4ccccc4s3)n12` [Compound 393, N-(3-(benzo[d]thiazol-2-yl)-5-methylimidazo[1,2-a]pyridin-2-yl)-2-(4-fluorophenyl)acetamide], the EC50 fell in the range of 0.5 to 3 µM.

Take `Cc1ccc2nc(NC(=O)CC(C)(C)C)c(-c3cc(C(F)(F)F)ccn3)n2n1` [Compound 394, 3,3-dimethyl-N-(6-methyl-3-(4-(trifluoromethyl)pyridin-2-yl)imidazo[1,2-b]pyridazin-2-yl)butanamide]: the EC50 was in the range of 3 to 10 µM.

On to `Cc1ccc2nc(NC(=O)Cc3ccc(F)cc3)c(-c3cc(C(F)(F)F)ccn3)n2n1` [Compound 395, 2-(4-fluorophenyl)-N-(6-methyl-3-(4-(trifluoromethyl)pyridin-2-yl)imidazo[1,2-b]pyridazin-2-yl)acetamide], for which the EC50 fell in the range of 3 to 10 µM.

In the case of `Cc1ccc2nc(NC(=O)CC(C)C(F)(F)F)c(-c3cc(C(F)(F)F)ccn3)n2n1` (stereo not shown) [Compound 396, 4,4,4-trifluoro-3-methyl-N-(6-methyl-3-(4-(trifluoromethyl)pyridin-2-yl)imidazo[1,2-b]pyridazin-2-yl)butanamide], the EC50 was 3 to 10 µM.

For `Cc1ccc2nc(NC(=O)C3CCC(F)(F)CC3)c(-c3cc(C(F)(F)F)ccn3)n2n1` [Compound 397, 4,4-difluoro-N-(6-methyl-3-(4-(trifluoromethyl)pyridin-2-yl)imidazo[1,2-b]pyridazin-2-yl)cyclohexanecarboxamide], the EC50 lay within 3 to 10 µM.

In the case of `CC(C)(C)CC(=O)Nc1nc2ccc(C(F)(F)F)cn2c1-c1cc(C(F)(F)F)ccn1` [Compound 398, 3,3-dimethyl-N-(6-(trifluoromethyl)-3-(4-(trifluoromethyl)pyridin-2-yl)imidazo[1,2-a]pyridin-2-yl)butanamide], the EC50 was less than 0.5 µM.

Still in this test, the particulars now being: read-out: SH-SY5Y_EC50.
As to `O=C(CC(F)(F)F)Nc1nc2ccc(F)cn2c1-c1nc2ccccc2s1` [Compound 381, N-(3-(benzo[d]thiazol-2-yl)-6-fluoroimidazo[1,2-a]pyridin-2-yl)-3,3,3-trifluoropropanamide], the EC50 stood at 2.13 µM.
